Patent US20170181971A1, “Nanoparticle- and Drug-Containing Polymersomes for Medical Applications” (Northeastern University, priority 2014, published 2017)

System: ampicillin-resistant E. coli
Test: Bacterial growth curve (OD600 for 24 hours) after treatment
Type: cell-based
Protocol: Bacteria transformation. First, an overnight suspension of E. coli cells (strain K-12 HB101; Bio-Rad, Hercules, Calif.) was pelleted by centrifugation and re-suspended in 250 μL of cold 50 mM calcium chloride (Sigma-Aldrich, St. Louis, Mo.) and placed in an ice bath. After 15 minutes on ice, 10 μg of the plasmid DNA was added, and the cells were returned to the ice bath for an additional 15 minutes. The cells were then heat shocked by placing them in a 42° C. water bath for exactly 45 seconds and then rapidly transferring them back to the ice bath for 2 minutes. This solution was then mixed with 750 μL of Lysogeny broth (LB, Sigma-Aldrich, St. Louis, Mo.). Finally, the complete transformed bacteria solution was streaked for inoculation on a LBagar plate containing 100 μg mL−1 of ampicillin and allowed to incubate overnight at 37° C.
Bacterial interactions. For each experimental trial, a single bacterial colony was selected and grown overnight in LB on a shaking incubator set at 200 rpm and 37° C. […] 100 μL of the bacterial suspension was then combined with varying AgPs treatment concentrations or controls in a 96 well plate. The final treatment volume in each well was brought up to 100 μL using 0.01 M PBS (e.g. 100 μL treatment +0 μL PBS, 90 μL treatment+10 μL PBS, 80 μL treatment+20 μL PBS, etc.). Control treatments were given 100 μL of PBS to keep the media dilution consistent. […]

CC1(C)S[C@@H]2[C@H](NC(=O)[C@H](N)c3ccccc3)C(=O)N2[C@H]1C(=O)O [free ampicillin, ampicillin]
bacteriostatic action (delay in time to reach exponential growth phase) (10^6 CFU mL^−1, OD600 for 24 hours): no bacteriostatic effect
difference in bacterial growth between control treatments (incl. PBS) (ampicillin at 200 μg mL^−1, FIG. 7G): no significant differences
